Common to all, as to format: cell-based
The subject of data set [1] is IL-12 production in peripheral monocyte prepared from healthy human blood. The data set can be described thus: Inhibitory activity on IL-12 production (IFN-γ/LPS-stimulated peripheral monocyte, ELISA). The note with it: IFN-γ 24 hours then LPS 20 hours, IL-12 in supernatant by ELISA. The protocol: (§1) (2) Assaying Inhibitory Activity on IL-12 Production and Cellular Toxicity
(§2) 2.0×10^5 of peripheral monocyte prepared from healthy human blood by Ficole gravity centrifugation method (Pharmacia Biotech Co, Cat. No. 17-1440-02) were suspended in RPMI1640 medium containing 10% FBS (170 μl). The test compound dissolved in various kinds of solvents at the various concentrations (10 μl) and 6000 units/ml of Interferon-γ (IFN-γ (Serotec Co, Cat. No. PHP050)) (10 μl) dissolved in RPMI1640 medium containing 10% FBS. After incubation for 24 hours in 96 well-microplate, lipopolysaccharide (6 μg/ml) dissolved in RPMI1640 medium containing 10% FBS (LPS (Difco Co., Cat. No. 3120-25-0)) (10 μl) was added thereto. After incubation for 20 hours, the supernatant (150 μl) was recovered to assay the quantity of IL-12 using ELISA Method (R&D Systems Co, Cat. No. D1200), calculate for inhibitory activity of the test compound and determine 50% inhibitory concentration (IC50) (see J. Exp. Med., 183, 147 (1996)). To the cells from which the supernatant (150 μl) was removed, a solution of MTT dissolved in RPMI1640 medium containing 10% FBS at 1 mg/ml (50 μl) was added and incubated for 3 hours. 2-Propanol containing 0.04N HCl (100 μl) was added thereto. After lyse the cells, the intensity of absorbance on 570 nm as a control of 690 nm was determined to assay cellular toxicity of the test compound.
A general note: An ELISA detects its analyte on a solid surface through an enzyme-linked reagent.

Data set [2] relates to peripheral monocyte prepared from healthy human blood. The data set can be described thus: Cellular toxicity in peripheral monocyte (MTT). The note with it: at 1 μM. As for the experimental part:
as §1, §2

Data set [3] relates to IL-6 production in A549 cells (human lung epithelial cell line). The data set can be described thus: Inhibitory activity on IL-6 production (TNF-α-stimulated A549 cells, ELISA). The following applies: TNF-α stimulation, incubation for 24 hours, IL-6 in supernatant by ELISA. As for the experimental part:
(§3) (1) Assaying Inhibitory Activity on IL-6 Production and Cellular Toxicity
(§4) 1.5×10^4 of A549 cells (human lung epithelial cell line) were suspended in dalbeco-modified eagle medium (DMEM) containing 0.5% fetus bovine serum (abbreviated as FBS)˜(100 μl) and incubated in 96 well-microplate over day and night. The test compound dissolved in various kinds of solvents at various concentrations (20 μl) and Tumor Necrosis Factor-α (TNF-α (Genzyme Co, Cat. No. TNF-H)) dissolved in DMEM at the concentration of 12.5 ng/ml (80 μl) were added thereto. After incubation for 24 hours, the supernatant (200 μl) was recovered to assay the quantity of IL-6 using Enzyme Linked Immuno […] Assay (ELISA) Method (R&D Systems Co., Cat. No. D6050), to calculate inhibitory activity of the test compound and determine 50% inhibitory concentration (IC50). To the cells from which the supernatant was removed, a solution of brom 3-(4,5-dimethyl-2-thiazolyl)-2,5-diphenyl-2H-tetrazolinium (abbreviated as MTT (Dojin Chemical Laboratory, Cat. No. 345-01821)) dissolved in DMEM containing 10% FBS at the concentration of 0.5 mg/ml (100 μl) was added and incubated for 3 hours. After removing MTT solution, methanol (100 μl) was added thereto. After lyse the cells, the intensity of absorbance on 570 nm as a control of 690 nm was determined to assay cellular toxicity of the test compound.

The test system of data set [4] is A549 cells (human lung epithelial cell line). Put plainly: Cellular toxicity in A549 cells (MTT). The note with it: at 10 μM. As for the experimental part:
as §3, §4

Where a name gives a salt, the structure may show the parent alone.

A word on the IC50: it is the concentration at which inhibition is half-maximal. The low end stands for greater potency, the high end for weaker potency.

On to `O=S1(=O)CC(S(=O)(=O)c2ccccc2)c2c(OCc3cccnc3)cccc21` (stereo not shown) [Example 20(4) hydrochloride, 4-(Pyridin-3-ylmethyl) oxy-3-phenylsulfonyl-2,3-dihydro-1,1-dioxidebenzo[b]thiophene], for which, in data set [1], half-maximal inhibition (IC50) required 0.11 µM. Further, the cellular toxicity result in data set [2] is listed as “no cellular toxicity”.
`O=S1(=O)CC(S(=O)(=O)c2ccccc2)c2c(OCc3cccnc3)cccc21` (stereo not shown) [Example 20(4) free compound, 4-(Pyridin-3-ylmethyl) oxy-3-phenylsulfonyl-2,3-dihydro-1,1-dioxidebenzo[b]thiophene] had a 50% inhibitory concentration (IC50) in data set [3] of 4.4 µM. Also, the cellular toxicity result in data set [4] is listed as “no cellular toxicity”.

These data come from patent US6420391B1, “Fused thiophone derivatives and drugs containing the same as the active ingredient” (Ono Pharmaceutical Co., Ltd., priority 1998, dated 2002).
